According to PubChem BioAssay AID449762 (Southern Research Specialized Biocontainment Screening …, 2010):
Results filed as inconclusive are left out.

System: M. tuberculosis H37Rv growth inhibition, 7H9 media
Assay: M. tuberculosis growth inhibition, HTS (AID 449762);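 also: bacterial growth assessed after seven days of incubation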
Settings: for IC90: measured here: IC90 growth inhibition

Compound: O=C(c1cnn2c(C(F)F)cc(-c3ccccc3)nc12)N1CCc2ccccc2C1
- IC50: 40.4 µM
- IC90: 49 µM

Compound: CCOc1ccc2nc(N/C(N)=N/C(=S)Nc3cccc(C)c3)nc(C)c2c1
- IC50: 5.4 µM
- IC90: > 100 µM

Compound: C/C(=N/NC(=O)c1ccccn1)c1c[nH]c2ccccc12
- IC50: 6.03 µM
- IC90: 11.8 µM

Compound: COc1ccc(CN2CCN(C(c3ccc(F)cc3)c3ccc(F)cc3)CC2)c(OC)c1OC
- IC50: 23.3 µM
- IC90: 26.3 µM

Compound: O=[N+]([O-])c1cc(C=Nc2ccc3ccccc3c2)ccc1Br
- IC50: 33.5 µM
- IC90: 45.6 µM

Compound: CC[C@H](C)[C@@H]1O[C@@]2(C=CC1C)CC1C[C@@H](CC=C(C)C(O[C@H]3CC(OC)C(O[C@H]4CC(OC)C(O)C(C)O4)C(C)O3)C(C)C=CC=C3CO[C@@H]4C(O)C(C)=C[C@@H](C(=O)O1)[C@]34O)O2 (some centres not stated)
- IC50: 12.7 µM
- IC90: 18.1 µM

Compound: CCC(C)NC(=O)c1c(N)n(/N=C/c2ccccn2)c2nc3ccccc3nc12 (configuration not stated)
- IC50: 9.73 µM
- IC90: 14.3 µM

Compound: CCCCCC1CC(CC(=O)NC(=S)Nc2ccc([N+](=O)[O-])cc2)C(=O)O1 (configuration not stated)
- IC50: 92.9 µM
- IC90: > 100 µM

Compound: CCOC(=O)c1c(NC(=O)CSc2nc3ccc(OC)cc3[nH]2)sc2c1CC(C)(C)NC2(C)C
- IC50: 21.1 µM
- IC90: 26.2 µM

Compound: COc1cc2c(-c3ccc4[nH]ccc4c3)c(-c3ccc(C#N)cc3)oc(=O)c2cc1OC
- IC90: > 100 µM

Compound: Cc1nc(-c2nc(-c3c(C(=O)NNC(=O)c4ccc(Cl)cc4)noc3C)cs2)cs1
- IC50: 7.57 µM
- IC90: 18.2 µM

Compound: Cc1ccc(C(=O)/C=C/C(=O)c2ccc(C)cc2)cc1
- IC50: 2.05 µM
- IC90: 7.63 µM

Compound: CC(=O)CCSc1ncnc2sc(-c3ccccc3)cc12
- IC90: > 100 µM

Compound: c1ccc(C2[C@H]3CN(CC4CCCCC4)[C@H](c4ccccc4)C34CC2(c2cccnc2)C4)cc1 (some centres not stated)
- IC50: 31.4 µM
- IC90: 41.5 µM

Compound: CN1C(=O)N(C)c2ccc(C=O)c3cccc1c23
- IC50: 41 µM
- IC90: 57.2 µM

Compound: O=[N+]([O-])c1cc(Cl)c(O)c(-[n+]2c(-c3ccccc3)cc(-c3ccccc3)cc2-c2ccccc2)c1
- IC50: 2.32 µM
- IC90: 5.36 µM

Compound: COc1cccc(/C=N/Nc2ncnc3scc(-c4ccccc4)c23)c1O
- IC50: 1.57 µM
- IC90: 3.35 µM

Compound: Cc1c(CN(C)C)c2c(n1Cc1ccccc1)C(=O)c1ccc(Br)cc1-2
- IC50: 17.6 µM
- IC90: 22 µM

Compound: COc1ccc(N=N/C(=C\O)C(=O)c2cccs2)cc1
- IC90: > 100 µM

Compound: CCc1ccc(Nc2n[n+](C)c(-c3ccncc3)s2)cc1
- IC50: 45.3 µM
- IC90: 51.3 µM

Compound: COc1cc2nc(N3CCN(c4cc(C)ccc4C)CC3)nc(N)c2cc1OC
- IC50: 13.8 µM
- IC90: 15.8 µM

Compound: C[N+](C)(CCCCCC[N+](C)(C)CCCN1C(=O)c2cccc3cccc(c23)C1=O)CCCN1C(=O)c2cccc3cccc(c23)C1=O
- IC50: 2.59 µM
- IC90: 3.72 µM

Compound: O=C(/C=C/c1ccc(O)c([N+](=O)[O-])c1)c1ccc2ccccc2c1
- IC50: 9.26 µM
- IC90: 25.6 µM

Compound: CC(C)(O)C#Cc1ccc(C(=O)Nc2ccc3c(c2)OCO3)s1
- IC50: 1.63 µM
- IC90: > 100 µM

Compound: CCOC(=O)c1ccc(Nc2cc3ccccc3c(=O)[nH]2)cc1
- IC50: 72.3 µM
- IC90: > 100 µM

Compound: Cc1cc(-c2ccc(Cl)cc2)c2cnn(C(C)C)c2n1
- IC50: 25.5 µM
- IC90: 44.1 µM

Compound: CN1CCN(C2=Cc3ccc(Cl)cc3Sc3ccc(F)cc32)CC1
- IC50: 22.7 µM
- IC90: 32.9 µM

Compound: Cc1cc(C)c2nc(-c3ccncc3)cc(C(=O)N3CCN(Cc4ccccc4Cl)CC3)c2c1
- IC50: 23.2 µM
- IC90: 26.1 µM

Compound: CCOc1ccc(N2C=Nc3ccc(OCC)cc3C2)cc1
- IC50: 44 µM
- IC90: 89.4 µM

Compound: C/C(=N\NC(N)=S)C1C2C3CC4C5CC(C42)C1C53 (configuration not stated)
- IC50: 28.1 µM
- IC90: 58.2 µM

Compound: O=C(Nc1nnc(-c2ccccc2Cl)o1)c1nc2ccccc2s1
- IC50: 6.01 µM
- IC90: 6.78 µM

Compound: CCCCn1c(=O)c(C(=O)Nc2ncccc2C)c(O)c2ccccc21
- IC50: 10.3 µM
- IC90: 15.8 µM

Compound: Cc1ccc(CN2CC(C(=O)OCc3ccccc3Cl)CC2=O)cc1 (configuration not stated)
- IC50: 4.66 µM
- IC90: 28.7 µM

Compound: CN(C(=O)COC(=O)/C=C/c1ccc(Cl)c(Cl)c1)c1c(N)n(Cc2ccccc2)c(=O)[nH]c1=O
- IC90: > 100 µM

Compound: Cc1c(Cl)ccc2sc(N3CCN(C(=O)C4=COCCO4)CC3)nc12
- IC50: 26.2 µM
- IC90: 59 µM

Compound: Cc1cnc(NC(=O)NCC2CCCC(CNC(=O)Nc3ncc(C)s3)C2)s1 (configuration not stated)
- IC50: 24.8 µM
- IC90: 28.2 µM

Compound: O=C(C1CCCN(c2ncnc3c2nc2n3CCCCC2)C1)N1CCN(c2ccc(Cl)cc2)CC1 (configuration not stated)
- IC50: 30.6 µM
- IC90: 40.3 µM

Compound: O=C(c1cc2cc(Cl)ccc2[nH]1)N1CCN(Cc2ccc3c(c2)OCO3)CC1
- IC90: > 100 µM

Compound: Cc1ccc(/C=C2\C(=O)Nc3ccccc32)o1
- IC50: 3.54 µM
- IC90: 6.03 µM

Compound: COc1ccc(Cl)cc1C(=O)O/N=C(\N)c1ccccn1
- IC50: 25.4 µM
- IC90: > 100 µM

Compound: Cc1ccc(Cn2nnnc2CN2CCC(c3nc4ccc(Cl)cc4[nH]3)CC2)cc1
- IC50: 26 µM
- IC90: 35.9 µM

Compound: COc1ccc(C=C2C=C(C(C)(C)C)C(=O)C(C(C)(C)C)=C2)cc1OC
- IC50: 2.94 µM
- IC90: 5.15 µM

Compound: CS(=O)(=O)c1nc(-c2ccccc2)cc(C(F)(F)F)n1
- IC50: 6.68 µM
- IC90: 18.7 µM

Compound: CC1=CC(=O)C(C(C)C)=C/C1=N/OS(=O)(=O)c1ccccc1
- IC50: 1.44 µM
- IC90: 4.12 µM

Compound: O=c1c(Cl)nc2cc(Cl)ccc2n1CCNc1ncc(C(F)(F)F)cc1Cl
- IC50: 1.3 µM
- IC90: 3.89 µM

Compound: Cc1ccc(-n2[nH]c(C)c(C=Nc3ccc(S(=O)(=O)Nc4nccs4)cc3)c2=O)c(C)c1
- IC50: 5.73 µM
- IC90: 17 µM

Compound: Cc1nc2ccc(OC(=O)c3ccccc3)cc2s1
- IC50: 66 µM
- IC90: 86 µM

Compound: O=C(Nc1ccc(-n2cccc2)cc1)C1CC1
- IC50: 1.84 µM
- IC90: > 100 µM

Compound: CCOC(=O)c1cnc(-n2nc(C)cc2C)nc1NNc1cc(C)nc(-c2ccccc2)n1
- IC50: 23.7 µM
- IC90: 92 µM

Compound: COc1cc(C#Cc2c(-c3cncn3C)n(C)c3ccc(-c4cnc(N5CCOCC5)nc4)cc23)cc(OC)c1
- IC50: 45.8 µM
- IC90: 51.7 µM

Compound: CCN(Cc1ccncc1)Cc1nc(-c2ccc(C(=O)OC)cc2)no1
- IC50: 15.3 µM
- IC90: 41.6 µM

Compound: CCCOc1cccc(C(=O)NC(=S)Nc2ccc(N3CCN(C)CC3)cc2)c1
- IC90: > 100 µM

Compound: CCn1nc(NC(=O)c2ccncc2)c2cc3cc(C)ccc3nc21
- IC50: 4.47 µM
- IC90: 47.3 µM

Compound: Cc1nn(-c2ccccc2)nc1C(=O)c1c(C)[nH]n(-c2ccccc2)c1=O
- IC50: 9.7 µM
- IC90: 18.7 µM

Compound: Nc1n[nH]c(C2CC2)c1N=Nc1ccc(Cl)cc1
- IC50: 19.3 µM
- IC90: 41 µM

Compound: CCOC(=O)c1csc(-c2snnc2C)n1
- IC50: 21.4 µM
- IC90: 52 µM

Compound: O=C(NC(=S)N1CCc2ccccc21)c1ccc(Br)o1
- IC50: 5.63 µM
- IC90: 9.62 µM

Compound: Cn1nc(C(F)(F)F)c2cc(NC(=O)OCC(C)(C)C)sc21
- IC50: 13.2 µM
- IC90: 40 µM

Compound: CCCCCCCCn1sccc1=O
- IC50: 1.29 µM
- IC90: 2.12 µM

Compound: Cc1cc(N2CCN(c3ccc(C(F)(F)F)cc3[N+](=O)[O-])CC2)c2ccccc2n1
- IC50: 21.4 µM
- IC90: 23.7 µM

Compound: C=CCOC(=O)COc1ccc2c(C)c(CC)c(=O)oc2c1
- IC50: 1.08 µM
- IC90: 2.21 µM

Compound: O=S1(=O)N(CCN2CC=C(c3c[nH]c4cc(F)ccc34)CC2)c2cccc3c2N1CCC3
- IC50: 11.1 µM
- IC90: 11.7 µM

Compound: O=[N+]([O-])c1cc([N+](=O)[O-])c2cc3ccccc3nc2c1
- IC50: < 0.2 µM
- IC90: 0.81 µM

Compound: Cc1ccc2c(c1)nnn2C1CCN(CC(=O)N2CCN(c3ccc(F)cc3)CC2)CC1
- IC50: 35.3 µM
- IC90: > 100 µM

Compound: CSCCCNC(=S)N1CCN(c2ccc(C(C)=O)cc2)CC1
- IC50: 24.8 µM
- IC90: 44.1 µM

Compound: COc1ccccc1N1CCN(c2ccc(-c3ccccc3)nn2)CC1
- IC50: 84.4 µM
- IC90: > 100 µM

Compound: CCCCn1c(SCc2ncc(-c3ccccc3)o2)nc2cc(S(N)(=O)=O)ccc21
- IC50: 3.3 µM
- IC90: 5.84 µM

Compound: CCOC(=O)C(C)Sc1nc(-c2cccs2)ccc1C#N (configuration not stated)
- IC50: 37.6 µM
- IC90: 50.8 µM

Compound: Cc1ccc2c(c1)c(/C=C/c1cc[n+](C)cc1)c(C)n2C
- IC50: 5.13 µM
- IC90: 6.8 µM

Compound: O=C(c1ccccc1)c1nn(-c2ccc(Cl)cc2)c(=O)cc1C(F)(F)F
- IC50: 12 µM
- IC90: 19.6 µM

Compound: Fc1ccc(N/N=C2/CC(c3ccccc3)Oc3ccccc32)c(F)c1 (configuration not stated)
- IC90: > 100 µM

Compound: O=S(Cc1ccc(Br)cc1)Cc1nnc(SCc2ccc(Cl)cc2)n1-c1ccccc1 (configuration not stated)
- IC50: 91.1 µM
- IC90: > 100 µM

Compound: CCCCCC(=O)NNC(=S)NC(=O)c1ccc([N+](=O)[O-])cc1
- IC50: 1.35 µM
- IC90: 4.43 µM

Compound: Cc1cc2nc(C3CCN(CC4COc5ccccc5O4)CC3)[nH]c2cc1C (configuration not stated)
- IC50: 15.5 µM
- IC90: 25.4 µM

Compound: CC1CCN(C(=O)C2CCN(c3nnc(-n4cccc4)s3)CC2)CC1
- IC50: 2.96 µM
- IC90: 3.37 µM

Compound: Cc1nc(-c2ccccc2)sc1C(=O)/C=C/c1ccccc1
- IC50: 10.3 µM
- IC90: 14.5 µM

Compound: CSc1nn(-c2ccc(C(=O)OCC(=O)NC(=O)NC(C)C)cc2)c(=S)s1
- IC50: 23.1 µM
- IC90: 25.9 µM

Compound: CNC(=O)COC(=O)c1ccc(-c2nc3ccccc3s2)s1
- IC50: 2.07 µM
- IC90: 23 µM

Compound: Cc1ccc(-c2cccc(NC(=O)C3C4C=CC(C4)C3C(=O)O)c2)o1 (configuration not stated)
- IC50: 74.2 µM
- IC90: > 100 µM

Compound: O=C(NNc1nc(-c2ccccc2)cs1)c1ccccc1
- IC50: 7.6 µM
- IC90: > 100 µM

Compound: O=C(Nc1ccc(C2=NCCN2)cc1)c1ccc(Cl)c(C(=O)Nc2ccc(C3=NCCN3)cc2)c1
- IC50: 11.3 µM
- IC90: 12.3 µM

Compound: COC(=O)C(CCSC)NC(=O)c1cn(-c2ccc(OC)cc2)c(=O)c2ccccc12 (configuration not stated)
- IC50: 12 µM
- IC90: > 100 µM

Compound: Cc1ccc(C2=NN(C)c3nc4ccccc4n3C2)cc1
- IC50: 20.4 µM
- IC90: 78.3 µM

Compound: COCCCN=C1NN=C(c2cc(C)n(Cc3ccco3)c2C)CS1
- IC50: 60.9 µM
- IC90: 87.4 µM

Compound: COc1ccc2c(c1)CCc1c(C(=O)Nc3c(C)n(C)n(-c4ccccc4)c3=O)noc1-2
- IC50: 14.2 µM
- IC90: > 100 µM

Compound: N=C1C(c2nc3ccccc3[nH]2)=C(O)CN1NC(=O)c1c[nH]c2ccccc12
- IC50: 13.5 µM
- IC90: 30.7 µM

Compound: Cc1cc(C)c2c(CN3CCN(Cc4ccccc4)CC3)cc(=O)oc2c1C
- IC50: 49.1 µM
- IC90: 54.6 µM
